Key:
OCI-Ly3 cell lines = assay: Proliferation inhibition test, ABC-DLBCL cell line OCI-Ly3; assay type: cell-based; settings: Homo sapiens; OCI-Ly3 (ABC-DLBCL, NF-κB pathway-dependent); 96 hours; Cell Counting Kit-8; read-out: Proliferation inhibitory activity against OCI-Ly3 IC50
Procedure: (§1) In ABC-DLBCL cell lines, the NF-κB pathway is constitutively activated due to mutations in the B-cell receptor pathway. To evaluate the proliferation inhibitory activity associated with the MALT1 inhibitory activity of the test substance, a proliferation inhibition test was conducted using ABC-DLBCL cell lines.
(§2) The test substance was prepared at a concentration of 10 mM in dimethyl sulfoxide (DMSO) and further diluted with DMSO to each of concentrations of 3,000, 1,000, 300, 100, 30, and 10 µM. The solutions were further diluted 100-fold with IMDM medium containing 10% FBS to prepare test substance solutions.
(§3) OCI-Ly3 cell lines (ABC-DLBCL, NF-κB pathway-dependent) were cultured in IMDM containing 10% FBS, and SU-DHL-4 cell lines (GCB-DLBCL, NF-κB pathway-independent, used as a negative control) were cultured in RPMI-1640 containing 10% FBS. Into a 96-well plate, 2,000 cells of the OCI-Ly3 cell line and 4,000 cells of the SU-DHL-4 cell line were seeded in 100 µL per well, and 11 µL of the adjusted test substance solution was added thereto (final concentrations: 10,000, 3,000, 1,000, 300, 100, 30, and 10 nM). After 96 hours of incubation at 37°C in a 5% CO2 incubator, 10 µL of Cell Counting Kit-8 (Dojindo Laboratories) was added to each well. After 4 hours of incubation at 37°C, absorbance at 450 nm was detected using a microplate reader (EnVision, PerkinElmer).
(§4) Using the measurement data, non-linear regression analysis based on a 2-parameter logistic model was performed with Spotfire (PerkinElmer) to estimate IC50 values.

SU-DHL-4 cell lines = assay: Proliferation inhibition test, GCB-DLBCL cell line SU-DHL-4 (negative control line); assay type: cell-based; settings: Homo sapiens; SU-DHL-4 (GCB-DLBCL, NF-κB pathway-independent, negative control); 96 hours; Cell Counting Kit-8; read-out: Proliferation inhibitory activity against SU-DHL-4 IC50
Procedure: as §1, §2, §3, §4

[1] = test system: HEK293/API2-MALT1/NF-κB reporter cells; assay: Inhibition of reporter activity in HEK293/API2-MALT1/NF-κB reporter cells; assay type: cell-based; settings: Homo sapiens, 24 hours with test substance, One-glo luminescence
Procedure: The API2-MALT1 fusion protein, expressed in MALT lymphoma, is known to constitutively activate the NF-κB pathway. To evaluate the inhibitory effect of the test substance on the NF-κB pathway in cells, a reporter activity inhibition test was conducted using HEK293/API2-MALT1/NF-κB reporter cells.
The test substance was prepared at a concentration of 10 mM in dimethyl sulfoxide (DMSO) and further diluted with DMSO to each of concentrations of 1000, 300, 100, and 10 µM. The solutions were further diluted 100-fold with DMEM medium containing 10% FBS to prepare test substance solutions.
HEK293/API2-MALT1/NF-κB reporter cells and 293T/CMV reporter cells (used as a negative control) were cultured in DMEM medium containing 10% FBS. Into a 384-well plate (#781080, Greiner), 6,000 cells were seeded in 30 µL per well, and after culturing for 24 hours, 3.3 µL of the adjusted test substance solution was added thereto (final concentrations: 10,000, 1,000, 100, and 10 nM). After culturing for 24 hours at 37°C in a 5% CO2 incubator, 33 µL of One-glo (Promega) was added to each well. After a 5-minute incubation at room temperature, luminescence was detected using a microplate reader (EnVision, PerkinElmer).
Using the measurement data, non-linear regression analysis was performed with the SAS system (SAS Institute Inc.) to estimate IC50.

[2] = Central nervous system (CNS) penetration study in mice; assay type: in vivo; settings: female, BALB/cCrSlc, mouse, ip, 30 mg/kg intraperitoneally, three hours later, cerebrum and plasma by LC-MS/MS, read-out: Brain-to-plasma concentration ratio (Kp value)
Procedure: To evaluate the central nervous system (CNS) penetration of a test substance, a central nervous system penetration study was conducted using mice.
Six-week-old female BALB/cCrSlc mice (Japan SLC) were used. The test substance suspended in 0.5% methylcellulose was intraperitoneally administered to mice at a dose of 30 mg/kg. Three hours later, blood was collected from the abdominal vena cava under isoflurane anesthesia, and plasma was obtained by centrifugation. After exsanguination from the abdominal vena cava, the cerebrum was collected.
The drug concentrations of the collected plasma and cerebrum were measured by LC-MS/MS. To determine the brain penetration of the drug, the brain-to-plasma concentration ratio (Kp value) was calculated.

[3] = target: T1, C-terminal catalytic domain of MALT1 (amino acid residues 329-824) (Homo sapiens, UniProt Q9UDY8); assay: MALT1 protease inhibitory activity (enzyme activity inhibition assay, fluorogenic substrate); assay type: biochemical; settings: substrate Ac-Leu-Arg-Ser-Arg-AMC 50 µM; 30°C for 2 hours; fluorescence
T1 construct: C-terminal catalytic domain of MALT1 (amino acid residues 329-824)
T1 sequence (Q9UDY8 329-824): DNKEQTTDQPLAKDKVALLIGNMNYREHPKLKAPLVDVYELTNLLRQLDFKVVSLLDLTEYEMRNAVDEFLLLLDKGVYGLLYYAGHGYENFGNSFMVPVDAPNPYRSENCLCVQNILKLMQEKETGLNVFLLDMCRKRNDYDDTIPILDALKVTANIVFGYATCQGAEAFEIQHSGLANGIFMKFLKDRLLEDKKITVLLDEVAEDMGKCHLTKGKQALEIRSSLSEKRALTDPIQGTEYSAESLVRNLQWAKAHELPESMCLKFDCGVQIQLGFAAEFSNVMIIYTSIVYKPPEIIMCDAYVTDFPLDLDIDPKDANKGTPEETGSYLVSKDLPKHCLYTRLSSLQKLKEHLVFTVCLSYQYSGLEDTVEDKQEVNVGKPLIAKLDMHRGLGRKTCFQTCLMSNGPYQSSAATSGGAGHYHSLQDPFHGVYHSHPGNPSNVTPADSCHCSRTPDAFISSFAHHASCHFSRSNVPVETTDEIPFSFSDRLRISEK
Procedure: To evaluate the enzyme inhibitory activity of a test substance against MALT1, an enzyme activity inhibition assay was conducted using the C-terminal catalytic domain of MALT1 (amino acid residues 329-824).
A test substance was prepared at a concentration of 10 mM in dimethyl sulfoxide (DMSO) and further diluted with DMSO to obtain final concentrations of 1000, 100, 10, 1, and 0.1 µM. The solutions were further diluted 25-fold with an assay buffer to prepare final test substance solutions. The composition of the assay buffer was 200 mM Tris/HCl HEPES (pH 7.5), 0.8 M Na citrate, 100 µM DTT, and 0.05% CHAPS.
The test substance solution was added to a 384-well black plate (#6007270, PerkinElmer) in an amount of 5 µL per well (n = 2; final concentrations of 10000, 1000, 100, 10, 1, and 0.1 nM), followed by the addition of 10 µL of MALT1 enzyme and finally 5 µL of a substrate solution (Ac-Leu-Arg-Ser-Arg-AMC, Peptide Institute, Inc.; final concentration in the reaction mixture: 50 µM), and after stirring, the mixture was allowed to react at 30°C for 2 hours. Fluorescence (excitation: 380 nm, emission: 460 nm) was detected using a microplate reader (EnVision, PerkinElmer).
Using the measurement data, non-linear regression analysis based on a 2-parameter logistic model was performed with Spotfire (PerkinElmer) to calculate IC50.

SMILES	IC50 (OCI-Ly3 cell lines) [nM]	IC50 (SU-DHL-4 cell lines) [nM]	IC50 [1] [nM]	Kp at 3 h [2]	IC50 [3] [nM]
C[C@@H]1CC(C(=O)c2cn(C)c3nc(-n4nccn4)c(Cl)cc23)C[C@@H](C)N1c1ncc(F)cc1I (stereo partly drawn) [Example 2, [5-chloro-1-methyl-6-(2H-1,2,3-triazol-2-yl)-1H-pyrrolo[2,3-b]pyridin-3-yl][(2R,6R)-1-(5-fluoro-3-iodopyridin-2-yl)-2,6-dimethylpiperidin-4-yl]methanone]	300	7200	60	1.2	18
C[C@@H]1CC(C(=O)c2cn(CC#N)c3nc(-n4nccn4)c(Cl)cc23)C[C@@H](C)N1c1ncc(F)cc1I (stereo partly drawn) [Example 3, {5-chloro-3-[(2R,6R)-1-(5-fluoro-3-iodopyridin-2-yl)-2,6-dimethylpiperidin-4-carbonyl]-6-(2H-1,2,3-triazol-2-yl)-1H-pyrrolo[2,3-b]pyridin-1-yl}acetonitrile]	580	6300	200	0.73	43
CC(=O)N1CC(n2cc(C(=O)C3C[C@@H](C)N(c4ncc(F)cc4I)[C@H](C)C3)c3cc(Cl)c(-n4nccn4)nc32)C1 (stereo partly drawn) [Example 5, 1-(3-{5-chloro-3-[(2R,6R)-1-(5-fluoro-3-iodopyridin-2-yl)-2,6-dimethylpiperidin-4-carbonyl]-6-(2H-1,2,3-triazol-2-yl)-1H-pyrrolo[2,3-b]pyridin-1-yl}azetidin-1-yl)ethan-1-one]	310	3600	160	0.12	35
Cn1cc(C(=O)c2cnn(-c3cncc4c(F)cccc34)c2C(F)(F)F)c2cc(Cl)c(-n3nccn3)nc21 [Example 6, [5-chloro-1-methyl-6-(2H-1,2,3-triazol-2-yl)-1H-pyrrolo[2,3-b]pyridin-3-yl][1-(8-fluoroisoquinolin-4-yl)-5-(trifluoromethyl)-1H-pyrazol-4-yl]methanone]	150	2300	75	0.83	13
CCn1cc(C(=O)c2cnn(-c3cncc4c(F)cccc34)c2C(F)(F)F)c2cc(Cl)c(-n3nccn3)nc21 [Example 7, [5-chloro-1-ethyl-6-(2H-1,2,3-triazol-2-yl)-1H-pyrrolo[2,3-b]pyridin-3-yl][1-(8-fluoroisoquinolin-4-yl)-5-(trifluoromethyl)-1H-pyrazol-4-yl]methanone]	130	3200	150	0.52	25
CCCn1cc(C(=O)c2cnn(-c3cncc4c(F)cccc34)c2C(F)(F)F)c2cc(Cl)c(-n3nccn3)nc21 [Example 8, [5-chloro-1-propyl-6-(2H-1,2,3-triazol-2-yl)-1H-pyrrolo[2,3-b]pyridin-3-yl][1-(8-fluoroisoquinolin-4-yl)-5-(trifluoromethyl)-1H-pyrazol-4-yl]methanone]	110	2400	280	0.52	39
C[C@@H]1CC(C(=O)c2cn(CCCO)c3nc(-c4ncccn4)c(Cl)cc23)C[C@@H](C)N1c1ncc(F)cc1I (stereo partly drawn) [Example 9, [5-chloro-1-(3-hydroxypropyl)-6-(pyrimidin-2-yl)-1H-pyrrolo[2,3-b]pyridin-3-yl][(2R,6R)-1-(5-fluoro-3-iodopyridin-2-yl)-2,6-dimethylpiperidin-4-yl]methanone]	480	5100	140	1.4	69
C[C@@H]1CC(C(=O)c2cn(C3COC3)c3nc(-c4ncccn4)c(Cl)cc23)C[C@@H](C)N1c1ncc(F)cc1I (stereo partly drawn) [Example 10, [5-chloro-1-(oxetan-3-yl)-6-(pyrimidin-2-yl)-1H-pyrrolo[2,3-b]pyridin-3-yl][(2R,6R)-1-(5-fluoro-3-iodopyridin-2-yl)-2,6-dimethylpiperidin-4-yl]methanone]	440	6000	140	1.7	67
C[C@@H]1CC(C(=O)c2cn(C)c3nc(-c4ncccn4)c(Cl)cc23)C[C@@H](C)N1c1ncc(F)cc1I (stereo partly drawn) [Example 11, [5-chloro-1-methyl-6-(pyrimidin-2-yl)-1H-pyrrolo[2,3-b]pyridin-3-yl][(2R,6R)-1-(5-fluoro-3-iodopyridin-2-yl)-2,6-dimethylpiperidin-4-yl]methanone]	290	8900	230	3	54
Cn1cc(C(=O)c2cnn(-c3cncc4c(F)cccc34)c2C(F)(F)F)c2cc(Cl)c(-c3ncccn3)nc21 [Example 12, [5-chloro-1-methyl-6-(pyrimidin-2-yl)-1H-pyrrolo[2,3-b]pyridin-3-yl][1-(8-fluoroisoquinolin-4-yl)-5-(trifluoromethyl)-1H-pyrazol-4-yl]methanone]	210	1900	85	0.66	11

Source: patent EP4772507A1, “AZAINDOLE COMPOUND AND MEDICAL DRUG” (Nippon Shinyaku Co., Ltd., priority 2023, dated 2025)
